Results from article PMC10542788, “Discovery of a cystathionine γ-lyase (CSE) selective inhibitor targeting active-site pyridoxal 5′-phosphate (PLP) via Schiff base formation” (Scientific Reports, 2023).

Assays:
[1] = system: MGL; assay: MGL inhibition, HSip-1 fluorescence; assay type: biochemical; details: 30 µM
Method: (§1) The selectivity of 1, 2 and PAG for rCSE over other RSS-producing enzymes, CBS and 3MST, was examined (Fig. 4a). CBS is a PLP-dependent enzyme, like CSE, and produces H2S from cysteine and homocysteine as substrates. 3MST is also an H2S-producing enzyme, but is not PLP-dependent and uses 3-mercaptopyruvate as a substrate. The amount of H2S produced by CBS or 3MST was evaluated in the presence or absence of the inhibitor by measuring the fluorescence intensity of HSip-1. […] We also examined the inhibitory activity towards two other PLP-dependent enzymes, MGL and ALT. MGL metabolizes L-methionine to α-ketobutyric acid, methanethiol and ammonia, and is inhibited by PAG[14]. MGL also produces H2S from homocysteine as a substrate, and this activity of MGL can be measured by fluorescence detection with HSip-1. […] The enzymatic activity of ALT can be assessed by means of a coupled assay using the reduction of pyruvate to L-lactate with lactate dehydrogenase and NADH and measuring the change in absorption of NADH.
10 µL of 200 µM homocysteine in 30 mM HEPES (pH 7.4) was added to 10 µL of a solution containing 20 µg/mL MGL (Sigma-Aldrich), 100 µM PLP, 1 µM HSip-1, 0.005% tween 20 and various concentrations of the inhibitor (0.5% DMSO as a cosolvent). The mixture was incubated at 25 °C for 100 min and the fluorescence intensity of HSip-1 was measured with a microplate reader.

[2] = system: ALT; assay: ALT inhibition, coupled absorbance assay (NADH, 340 nm); assay type: biochemical; details: 30 µM
Method: as §1
An alanine aminotransferase activity assay kit (BioVision, Inc.) was used to measure the activity of ALT. A mixture of L-alanine, NADH, LDH (lactate dehydrogenase) and ALT was incubated at 37 °C for 15 min, then α-ketoglutarate was added to the mixture and the absorbance at 340 nm was measured with a microplate reader.

[3] = system: methionine γ-lyase (MGL); set-up: method as in PMID 12920135; details: cited from earlier work
[4] = system: L-alanine transaminase (ALT); set-up: method as in PMID 7364752; details: cited from earlier work
[5] = molecular target: T1, rat CSE (rCSE) (Rattus norvegicus, UniProt P18757); assay: rCSE inhibition, H2S detection by fluorescence of HSip-1; assay type: biochemical; details: for IC50: fluorescence assay with HSip-1, 1.5 mM cysteine, 100 μM PLP, mean ± S.E., read-out: IC50, inhibitory activity towards rCSE
T1 construct: His-tag (C); made in house; host or cells: E. coli BL21
Method: The developed assay system employs a plate reader to detect H2S production by CSE as a fluorescence signal in a solution containing 30 μg/mL rat CSE (rCSE), 1 μM HSip-1, 100 μM pyridoxal-5′-phosphate (PLP) and 1.5 mM cysteine (a substrate) in a 384-well plate format (Fig. 1b). A large amount of rCSE was expressed in E. coli and purified on a Ni Sepharose 6 Fast Flow module. We then performed screening of a chemical library consisting of 161,600 compounds (from the Drug Discovery Initiative, the University of Tokyo) for CSE inhibitors (Fig. 1c). […] Then, a confirmation test for repeatability (n = 4) of the 160 compounds selected in the 1st screening was performed to exclude false-positives. In this step, we also excluded cysteine-reactive compounds by changing the addition order of the rCSE and cysteine (substrate) solutions. In other words, in the 1st screening, the enzyme solution was firstly added to each library compound, while in the confirmation test for repeatability of the hit compounds in the 1st screening, we firstly added the cysteine solution to each compound. This enabled us to identify and exclude cysteine-reactive compounds, based on their reaction with the added cysteine. These procedures left 80 compounds showing both more than 40% inhibition at 10 µM and similar % inhibition of rCSE irrespective of the addition order of the rCSE and cysteine solutions. In the 2nd screening, we examined the reactivity of these 80 compounds with H2S using an H2S donor[17] to exclude H2S-reactive compounds. […] In this assay, we selected 13 compounds which were non-reactive to H2S, but one was relatively unstable and two of them were the same compound, so that 11 compounds were finally selected. These compounds included some hydrazine and hydrazide derivatives, so we performed titration assay of the selected 11 compounds together with 9 commercially available hydrazine and hydrazide compounds (Supplementary Fig. S3) and calculated the half-maximal (50%) inhibitory concentration (IC50) of each compound.
The fluorescence intensity of HSip-1 was measured (λex = 490 nm, λem = 510 nm) with a microplate reader (EnVision, Perkin Elmer).
10 µL of 1.5 mM cysteine solution in 30 mM HEPES (pH 7.4) was added to 10 µL of solution containing 30 µg/mL rCSE, 100 µM PLP, 1 µM HSip-1, 0.005% tween 20 and the test compound (0.5% DMSO as a cosolvent). The mixture was incubated at 25 °C for 3 h and the fluorescence intensity of HSip-1 was measured with a microplate reader.

| Compound | inhibitory activity towards MGL / selectivity for CSE over MGL [1] | inhibitory activity towards ALT / selectivity for CSE over ALT [2] | inhibition of MGL [3] | inhibition of ALT [4] | IC50 [5] [µM] | selectivity for CSE over other enzymes (CBS, 3MST, MGL, ALT) ([5]; 3 µM) |
| --- | --- | --- | --- | --- | --- | --- |
| C#CCC(N)C(=O)O (racemic) [PAG, D,L-Propargylglycine, reference compound] | inhibited both MGL and ALT | inhibited both MGL and ALT | inhibited | inhibited |  |  |
| CCNC(=O)C(=O)NN [Compound 3] |  |  |  |  | > 100 |  |
| CNC(=O)C(=O)NN [Compound 2] | some inhibitory activity towards MGL and ALT | some inhibitory activity towards MGL and ALT |  |  | 0.43 ± 0.02 | high selectivity for CSE |
| NNC(=O)C(=O)Nc1ccccc1 [Compound 4] |  |  |  |  | > 100 |  |
